Source: PubChem BioAssay (NCI)
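48-hour exposure; five concentrations; linearly interpolated endpoints. Here, GI50 denotes the concentration required for 50% inhibition of growth. TGI marks complete inhibition of growth.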

What was measured:
Assay in all cases: NCI anticancer screen, dose series, 48 h
RPMI-8226 leukemia = tested on: RPMI-8226 leukemia
A498 renal = tested on: A498 renal
MDA-N = tested on: MDA-N
PC-3 prostate = tested on: PC-3 prostate
SW-620 colon = tested on: SW-620 colon
DU-145 prostate = tested on: DU-145 prostate
CCRF-CEM leukemia = tested on: CCRF-CEM leukemia
U251 CNS = tested on: U251 CNS
HS 578T breast = tested on: HS 578T breast
MDA-MB-231 breast = tested on: MDA-MB-231 breast

Row | Compound | TGI (RPMI-8226 leukemia) [µM] | TGI (A498 renal) [µM] | TGI (MDA-N) [µM] | TGI (PC-3 prostate) [µM] | TGI (SW-620 colon) [µM] | TGI (DU-145 prostate) [µM] | TGI (CCRF-CEM leukemia) [µM] | TGI (U251 CNS) [µM] | TGI (HS 578T breast) [µM] | TGI (MDA-MB-231 breast) [µM] | GI50 (RPMI-8226 leukemia) [µM] | GI50 (A498 renal) [µM] | GI50 (PC-3 prostate) [µM] | GI50 (SW-620 colon) [µM] | GI50 (DU-145 prostate) [µM] | GI50 (CCRF-CEM leukemia) [µM] | GI50 (U251 CNS) [µM] | GI50 (HS 578T breast) [µM] | GI50 (MDA-MB-231 breast) [µM]
1 | COc1ccc(N2C(=O)C3c4[nH]c5ccc(F)cc5c4C4CCC(C(C)(C)C)CC4C3C2=O)cc1 (centres undefined) | > 10 | > 10 | > 10 | > 10 | > 10 | > 10 | > 10 | > 10 | > 10 | > 10 |  |  |  |  |  |  |  |  | 
2 | O=C(NCCNc1nccc(-c2c(-c3cccc(O)c3)nc3sccn23)n1)c1ccccc1 | 25.3 | 19.3 |  | 65.7 | 79.5 | 68.7 | 34.1 | > 100 | 38.3 | 31.5 | 6.97 | 3.68 | 11.9 | 18 | 19.7 | 3.38 | 17.9 | 4.86 | 7.05
3 | Cc1nc2[nH]ncn2c(=O)c1CCO | > 10 | > 10 | > 10 | > 10 | > 10 | > 10 | > 10 | > 10 | > 10 | > 10 |  |  |  |  |  |  |  |  | 
4 | COc1ccc2c3c([nH]c2c1)CCN(Cc1ccccc1)C3 | 64.6 | 46.5 |  |  | 51.7 | > 100 | > 100 | 53.4 | 56.9 | 66.4 |  |  |  |  |  |  |  |  | 
5 | CCOC(=O)Cc1cnc(NC(NC(=O)CC)(C(F)(F)F)C(F)(F)F)s1 | > 100 | > 100 | > 100 |  |  | > 100 | > 100 | > 100 | > 100 | > 100 |  |  |  |  |  |  |  |  | 
